In assay [1] the test system is cardiomyocyte Gs- and Gi-coupled receptors. Nature of the assay: cAMP assay in neonatal cardiomyocytes. Format: cell-based, rat. For orientation: cAMP levels reflect the balance of adenylyl cyclase and phosphodiesterase activity.
Description: Activation of cardiomyocyte Gs- and Gi-coupled receptors was determined as a measure of cAMP production.
Neonatal cardiomyocytes were isolated using a commercially available system. […] Sprague Dawley neonatal rats (1-2 days old) were decapitated and the beating heart dissected out into digestion buffer (Cellutron D1 buffer) to dissociate cells. […] The resuspended cells incubated in buffer (Cellutron D3 buffer) for sufficient time to allow optimal dispersion and minimize the need for pipetting to break up clumps. Cells released from the first 2 digestions were discarded since a significant portion of these is red blood cells. Resuspended cells were filtered and allowed to pre-plate for 1 hour on plastic in an incubator in NS media (Cellutron, NJ) in order to remove fibroblasts. After 1 hour of pre-plating, floating cells are removed and the flask rinsed with NS media. The floating cells and the cells in the rinse media were combined and counted. Residual red blood cells, which are smaller that the cardiac myocytes, were not counted.
At Day 1, the NS media was replaced with fresh NS media.
Dose response was determined.
For Gs assays the positive control was 10uM forskolin and negative control was buffer. For Gi assays the positive control was buffer and the negative control was 10uM forskolin.
For assay [2] the following is noted: inhibition of gastric emptying, subcutaneous, cited from earlier work.
Assay [3] deals with T1, human GIP receptor (Homo sapiens, UniProt P48546).
Assay [4] is classed as in vivo, NIH/Swiss mice.
Description: Gavage (1.5g/kg) was given at t=0. Sample was taken at t=30 min.
A short description of assay [5]: IVGTT duration of action assay, single SC injection. Format: in vivo, rat. The note with it: for Duration In The Rat IVGTT Assay: compared with 0601GIP3794 (794), @ -120 min.
Description: In the typical IVGTT assays the test sample was administered by IV infusion. The IV infusion of sample was initiated at t = -30min and continued through t = 90. IV glucose was given at t = 0. To determine a duration of action using the IVGTT assay, the sample was injected SC as a single injection at one time point indicated (e.g., t = -240, -120, -60 or -30) prior to administration of glucose. IV glucose was given at t = 0.
Assay [6] concerns the target human GIP receptor. The note with it: read-out: GIP RBA; GIP receptor binding; RIN where stated; unit nM printed for these values.
Assay [7] is classed as in vivo, C57BL/6 mice. Particulars: infused via osmotic pump for 2 weeks, high-fat diet.
The format of assay [8] is in vivo, NIH/Swiss mice. Particulars: mouse, in vivo.
Description: In Figure 3A, bars represent mean ± sd, n=6-10. […] Gavage (1.5g/kg) was given at t=0. Sample was taken at t=30 min. […] In Figure 3B, points represent mean ± sem, n=8-15.
In Figure 13B bars represent mean +/- sd. Peptide was injected IP at t = -5 minutes into 4-hour fasted NIH/Swiss female mice. Gavage (1.5g/kg) was given at t = 0. […] In Figure 17 points represent mean +/- sem. […] Samples were taken at t=60, t=120 and t=180.
The format of assay [9] is in vivo, db/db mice. Particulars: Figure 4; GIP at a 10 fold higher dose.
Description: Peptide was injected IP at t=0 immediately following baseline sample into 2-hour fasted db/db mice.
The format of assay [10] is in vivo, rats. Also noted: AUC Change in Insulin Pre IVGTT / AUC Change in Insulin Post IVGTT: unit not given beside the values.
Assay [11] in a line: Circulatory system effects in conscious rats by telemetry. Format: in vivo, Harlan Sprague Dawley rats. Particulars: 80 nmol/kg, remote intravenous dosing.
For assay [12] the following is noted: IP at t=0; consumed at t=30, 60, 120 min.
Assay [13] concerns the target T1, human GIP receptor. Description: biochemical. Particulars: read-out: %Inh 10nM.
Where [14] appears, read: cardiomyocyte Gs-coupled receptor activation, three independent experiments.
[15] abbreviates: 100 pmol/kg/min infusion dose in rats.
[16] abbreviates: insulin levels at 0-30 minutes as AUC, rat.

Like-named read-outs stand apart in the source and are kept apart here. Ends that are not written are not given here.

T1 sequence (P48546 22-466 limits assumed): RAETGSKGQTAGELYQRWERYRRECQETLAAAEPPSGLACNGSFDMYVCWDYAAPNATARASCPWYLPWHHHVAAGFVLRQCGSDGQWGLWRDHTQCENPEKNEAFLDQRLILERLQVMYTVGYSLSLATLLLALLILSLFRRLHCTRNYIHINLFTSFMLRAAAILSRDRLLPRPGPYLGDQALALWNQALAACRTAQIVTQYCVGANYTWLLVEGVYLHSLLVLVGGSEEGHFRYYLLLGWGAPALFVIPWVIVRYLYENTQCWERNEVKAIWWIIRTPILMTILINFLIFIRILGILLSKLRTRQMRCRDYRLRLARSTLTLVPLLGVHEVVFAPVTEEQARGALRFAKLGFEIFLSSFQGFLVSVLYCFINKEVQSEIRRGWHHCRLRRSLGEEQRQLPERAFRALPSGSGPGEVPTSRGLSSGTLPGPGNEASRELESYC

Regarding “HAEGTFTSDVSSYLEGQAAKEFIAWLVKGR-NH2 [GLP-1]”, the “cAMP activity in cardiomyocytes” value in assay [1] (data not shown) is on record as “very low to no significant activity”. Also, the “EC(50)” value is 1.82 µg in assay [2] (conscious rats ~200g) and 2.76 nmol/kg in assay [2] (conscious rats).

As for “HGEGTLISDYSIAMDKIHQQDFVNWLLAQKPKKIRYS-NH2 [0601 GIP48 43]”, the “(%Inh 10nm,GIP-LF Assay)” value in assay [3] was 3(%Inh 10nM).

`CC[C@H](C)[C@H](NC(=O)[C@H](CO)NC(=O)[C@H](Cc1ccc(O)cc1)NC(=O)[C@H](CC(=O)O)NC(=O)[C@H](CO)NC(=O)[C@@H](NC(=O)[C@H](Cc1ccccc1)NC(=O)[C@@H](NC(=O)CNC(=O)[C@H](CCC(=O)O)NC(=O)[C@@H](C)NC(=O)[C@@H](N)Cc1ccc(O)cc1)[C@@H](C)O)[C@@H](C)CC)C(=O)N[C@@H](C)C(=O)N[C@@H](CCSC)C(=O)N[C@@H](CC(=O)O)C(=O)N[C@@H](CCCCN)C(=O)N[C@H](C(=O)N[C@@H](Cc1c[nH]cn1)C(=O)N[C@@H](CCC(N)=O)C(=O)N[C@@H](CCC(N)=O)C(=O)N[C@@H](CC(=O)O)C(=O)N[C@@H](Cc1ccccc1)C(=O)N[C@H](C(=O)N[C@@H](CC(N)=O)C(=O)N[C@@H](Cc1c[nH]c2ccccc12)C(=O)N[C@@H](CC(C)C)C(=O)N[C@@H](CC(C)C)C(=O)N[C@@H](C)C(=O)N[C@@H](CCC(N)=O)C(=O)N[C@@H](CCCCN)C(=O)N1CCC[C@H]1C(=O)N[C@@H](CCCCN)C(=O)N[C@@H](CCCCN)C(=O)N[C@@H](C)C(=O)N[C@@H](CCCNC(=N)N)C(=O)N[C@@H](Cc1ccc(O)cc1)C(=O)N[C@@H](CO)C(N)=O)C(C)C)[C@@H](C)CC` [0601 GIP48 56]: in assay [4] (AUC240), the “Basal Glucose Lowering at 80 nmol/Kg” value is listed as -3%, AUC240. Moreover, the “Duration In The Rat IVGTT Assay” value in assay [5] is <794@-120 min.

As for “urocortin: known cardiac myocyte Gs-coupled receptor activator used as a positive control (DNPSLSIDLTFHLLRTLLELARTQSQRERAEQNRIIFDSV; ends and bridges not checked; UniProt P55089 83-122, looked up)”, the EC(50) in assay [1] (setting [14]) turned out to be 0.7 nM.

Turning to `CC[C@H](C)[C@H](NC(=O)[C@H](CO)NC(=O)[C@H](Cc1ccc(O)cc1)NC(=O)[C@H](CC(=O)O)NC(=O)[C@H](CO)NC(=O)[C@@H](NC(=O)[C@H](Cc1ccccc1)NC(=O)[C@@H](NC(=O)CNC(=O)[C@H](CCC(=O)O)NC(=O)[C@@H](C)NC(=O)[C@@H](N)Cc1ccc(O)cc1)[C@@H](C)O)[C@@H](C)CC)C(=O)N[C@@H](C)C(=O)N[C@@H](CCSC)C(=O)N[C@@H](CC(=O)O)C(=O)N[C@@H](CCCCN)C(=O)N[C@H](C(=O)N[C@@H](Cc1c[nH]cn1)C(=O)N[C@@H](CCC(N)=O)C(=O)N[C@@H](CCC(N)=O)C(=O)N[C@@H](CC(=O)O)C(=O)N[C@@H](Cc1ccccc1)C(=O)N[C@H](C(=O)N[C@@H](CC(N)=O)C(=O)N[C@@H](Cc1c[nH]c2ccccc12)C(=O)N[C@@H](CC(C)C)C(=O)N[C@@H](CC(C)C)C(=O)N[C@@H](C)C(=O)N[C@@H](CCC(N)=O)C(=O)N[C@@H](CCCCN)C(=O)N1CCC[C@H]1C(=O)N[C@@H](CCCCN)C(=O)N[C@@H](CO)C(=O)N[C@@H](C)C(=O)N[C@@H](CCCNC(=N)N)C(=O)N1CCC[C@H]1C(=O)N[C@@H](CO)C(N)=O)C(C)C)[C@@H](C)CC` [0601 GIP48 21], in assay [4] (AUC240), the “Basal Glucose Lowering at 80 nmol/Kg” value is given as -5%, AUC240. Further, in [5], the “Duration In The Rat IVGTT Assay” value is given as <794@-120 min.

As to “YSDGTFISDYSIAMDKlHQQDFVNWLLAQKPKKIRYS-NH2 [Compound 0601GIP4386]”, the IC50 in [6] is 156 nM.

Take “YaEGTFISDYSIAMDKIHQQDFVNWLLAQKPSSGAPPPS-NH2 [Compound 0601GIP3794]”: the “body weight change in diet-induced-obese mice” value in [7] is reported as “without a concomitant reduction in body weight”. In assay [8], the “OGTT ED50” value was approximately 2 nmol/kg. Moreover, the “Basal Glucose Lowering at 80 nmol/Kg” value in assay [4] (AUC180) is listed as -9%. Moreover, in [4] (AUC240), the “Basal Glucose Lowering at 80 nmol/Kg” value is reported as -7 to-20%. Moreover, the “glucose lowering in normal mice” value in [4] (Figures 3A and 3B, NIH/Swiss mice) is reported as “significantly more efficacious than full length GIP”. Further, the glucose lowering profile entry in assay [4] (Figures 8A and 8B, IP at t=0, 2-hour fasted NIH/Swiss mice) is on record as “gradually increasing activity that peaks at t=120min”. In assay [9], the “glucose lowering in a diabetic mouse model” value was “pronounced and long-acting effect in lowering glucose”. For the same compound, in assay [10] (setting [15]), the “insulin levels prior to the glucose challenge” value is recorded as “significant rise in insulin levels” and the “insulinotropic response to an intravenous glucose challenge” value is “significant enhancement of the insulinotropic response”. Besides, the “Standard IVGTT assay IV infusion (100 pmol/min/kg)” value in assay [10] (setting [16]) is 249. For the same compound, in assay [10] (rat, in vivo), the “AUC Change in Insulin Post IVGTT” value was 173.1+-29.4 and the “AUC Change in Insulin Pre IVGTT” value was 28.8 +-10.7. In assay [5] (setting [16]), the “Duration of action in assay SC inj T = -30 min” value amounted to 198, the “Duration of action in assay SC inj T = -60 min” value was 159, the “Duration of action in assay SC inj T = -120 min” value is 204 and the “Duration of action in assay SC inj T= -240 min” value was 79. The EC(50) in assay [1] (cAMP production, experiment of Figures 18A/18B) was found to be 11.7 nM. In assay [1] (setting [14]), this compound came in with an EC(50) of 29.8 nM. Besides, in [11], the “dP/dt (inotropic effect)” value was “prolonged inotropic effect”, the heart rate entry is given as “transient relative to GIP” and the mean arterial pressure entry was “decreased mean arterial pressure”. Further, the “systolic and diastolic pressures” value in assay [11] (compared to vehicle or GIP) is “sustained lowering of systolic and diastolic pressures”. Further, the acute food intake result in [12] is reported as “did not acutely inhibit food intake”.

`CC[C@H](C)[C@H](NC(=O)[C@H](CO)NC(=O)[C@H](Cc1ccc(O)cc1)NC(=O)[C@H](CC(=O)O)NC(=O)[C@H](CO)NC(=O)[C@@H](NC(=O)[C@H](Cc1ccccc1)NC(=O)[C@@H](NC(=O)CNC(=O)[C@H](CC(=O)O)NC(=O)[C@H](C)NC(=O)[C@@H](N)Cc1ccc(O)cc1)[C@@H](C)O)[C@@H](C)CC)C(=O)N[C@@H](C)C(=O)N[C@@H](CCSC)C(=O)N[C@@H](CC(=O)O)C(=O)N[C@@H](CCCCN)C(=O)N[C@H](C(=O)N[C@@H](Cc1c[nH]cn1)C(=O)N[C@@H](CCC(N)=O)C(=O)N[C@@H](CCC(N)=O)C(=O)N[C@@H](CC(=O)O)C(=O)N[C@@H](Cc1ccccc1)C(=O)N[C@H](C(=O)N[C@@H](CC(N)=O)C(=O)N[C@@H](Cc1c[nH]c2ccccc12)C(=O)N[C@@H](CC(C)C)C(=O)N[C@@H](CC(C)C)C(=O)N[C@@H](C)C(=O)N[C@@H](CCC(N)=O)C(=O)N[C@@H](CCCCN)C(=O)N1CCC[C@H]1C(=O)N[C@@H](CCCCN)C(=O)N[C@@H](CCCCN)C(=O)N[C@H](C(=O)N[C@@H](CCCNC(=N)N)C(=O)N[C@@H](Cc1ccc(O)cc1)C(=O)N[C@@H](CO)C(N)=O)[C@@H](C)CC)C(C)C)[C@@H](C)CC` [Compound 0601GIP4390]: the inhibition at 0.01 µM in assay [13] was determined as 90.3%.

As to `CC[C@H](C)[C@H](NC(=O)[C@H](CCCCN)NC(=O)[C@H](CC(=O)O)NC(=O)[C@H](CC(C)C)NC(=O)[C@H](C)NC(=O)[C@@H](NC(=O)[C@H](CO)NC(=O)[C@H](Cc1ccc(O)cc1)NC(=O)[C@H](CC(=O)O)NC(=O)[C@H](CO)NC(=O)[C@@H](NC(=O)[C@H](Cc1ccccc1)NC(=O)[C@@H](NC(=O)CNC(=O)[C@H](CCC(=O)O)NC(=O)[C@@H](C)NC(=O)[C@H](Cc1ccc(O)cc1)NC(=O)[C@@H](N)CC(C)C)[C@@H](C)O)[C@@H](C)CC)[C@@H](C)CC)C(=O)N[C@@H](C)C(=O)N[C@@H](CCC(N)=O)C(=O)N[C@@H](CCC(N)=O)C(=O)N[C@@H](CCC(=O)O)C(=O)N[C@@H](Cc1ccccc1)C(=O)N[C@H](C(=O)N[C@@H](CC(N)=O)C(=O)N[C@@H](Cc1c[nH]c2ccccc12)C(=O)N[C@@H](CC(C)C)C(=O)N[C@@H](CC(C)C)C(=O)N[C@@H](C)C(=O)N[C@@H](CCC(N)=O)C(=O)N[C@@H](CCCCN)C(=O)N1CCC[C@H]1C(=O)N[C@@H](CCCCN)C(=O)N[C@@H](CCCCN)C(=O)N[C@H](C(=O)N[C@@H](CCCNC(=N)N)C(=O)N[C@@H](Cc1ccc(O)cc1)C(=O)N[C@@H](CO)C(N)=O)[C@@H](C)CC)C(C)C` [0601 GIP48 02], the “Basal Glucose Lowering at 80 nmol/Kg” value in [4] (AUC240) is listed as -15%, AUC240. In assay [5], the “Duration In The Rat IVGTT Assay” value is < 794 @ -120 min.

Values taken from patent publication EP2057188B1 (priority 2006, dated 2008).
